Assay [1] relates to non-selective sigma receptor. In words: σ radioligand binding assay ([3H]DTG). Conditions: inhibition of control specific binding; at 1µM (concentration printed only in head of Cpd A); rat cerebral cortex.
A further assay concerns the target human 5-HT6 receptor (Homo sapiens, UniProt P50406). As to the kind of experiment: 5HT6 radioligand binding assay ([3H] LSD). Conditions: read-out: %inhibition 5HT6.
The target in the next assay is T1, human 5-HT2A receptor (Homo sapiens, UniProt P28223).
T1 construct: expressed in transfected cells; host or cells: HEK-293 cells
T1 sequence (P28223 whole entry): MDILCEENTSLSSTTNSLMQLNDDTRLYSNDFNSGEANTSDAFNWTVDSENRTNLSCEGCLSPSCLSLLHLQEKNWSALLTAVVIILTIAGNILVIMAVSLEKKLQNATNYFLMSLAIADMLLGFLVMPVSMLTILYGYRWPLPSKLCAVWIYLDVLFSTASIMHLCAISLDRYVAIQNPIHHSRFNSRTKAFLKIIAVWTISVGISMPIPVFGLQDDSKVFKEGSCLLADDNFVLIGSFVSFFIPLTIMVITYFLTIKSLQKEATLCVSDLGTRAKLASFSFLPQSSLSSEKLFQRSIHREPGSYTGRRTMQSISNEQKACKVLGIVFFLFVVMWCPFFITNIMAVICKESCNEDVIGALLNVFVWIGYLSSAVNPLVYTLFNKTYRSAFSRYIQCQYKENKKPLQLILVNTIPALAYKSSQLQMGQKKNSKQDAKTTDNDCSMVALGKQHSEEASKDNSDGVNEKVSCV
As to the kind of experiment: 5HT2a radioligand binding assay ([3H]ketanserin). Conditions: inhibition of control specific binding; at 1µM (concentration printed only in head of Cpd A); human recombinant.

In assay [2] the target is human dopamine D3 receptor (Homo sapiens, UniProt P35462). As to the kind of experiment: D3 radioligand binding assay ([3H]spiperone). Conditions: read-out: %inhibition D3.
Chain of human dopamine D3 receptor (P35462 whole entry): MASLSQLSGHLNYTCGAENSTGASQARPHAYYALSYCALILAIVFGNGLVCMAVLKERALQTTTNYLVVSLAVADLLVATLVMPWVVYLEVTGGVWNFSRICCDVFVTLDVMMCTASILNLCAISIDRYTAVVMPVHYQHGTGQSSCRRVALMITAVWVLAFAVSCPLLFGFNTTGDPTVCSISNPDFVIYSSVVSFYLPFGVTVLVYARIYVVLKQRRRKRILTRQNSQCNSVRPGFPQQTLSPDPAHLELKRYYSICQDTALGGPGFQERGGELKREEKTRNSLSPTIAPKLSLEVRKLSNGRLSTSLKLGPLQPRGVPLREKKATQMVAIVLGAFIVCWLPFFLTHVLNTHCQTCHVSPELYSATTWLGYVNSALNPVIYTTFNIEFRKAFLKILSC
Description: Nonspecific binding was determined in the presence of 10 µM (+)butaclamol. Following incubation, the samples were filtered rapidly under vacuum through glass fiber filters (GF/B, Packard) presoaked with 0.3% PEI and rinsed several times with ice-cold 50 mM Tris-HCl using a 96-sample cell harvester (Unifilter, Packard). The filters were dried then counted for radioactivity in a scintillation counter (Topcount, Packard) using a scintillation cocktail (Microscint 0, Packard). The specific ligand binding to the receptor is defined as the difference between the total binding and the non specific binding determined in the presence of an excess of unlabelled ligand. The results are expressed as a percentage of control specific binding and as a percentage inhibition of control specific binding obtained in the presence of the compounds.
In a further assay the target is T2, human 5-HT2C receptor (Homo sapiens, UniProt P28335).
T2 construct: expressed in transfected cells; host or cells: CHO cells
T2 sequence (P28335 33-458): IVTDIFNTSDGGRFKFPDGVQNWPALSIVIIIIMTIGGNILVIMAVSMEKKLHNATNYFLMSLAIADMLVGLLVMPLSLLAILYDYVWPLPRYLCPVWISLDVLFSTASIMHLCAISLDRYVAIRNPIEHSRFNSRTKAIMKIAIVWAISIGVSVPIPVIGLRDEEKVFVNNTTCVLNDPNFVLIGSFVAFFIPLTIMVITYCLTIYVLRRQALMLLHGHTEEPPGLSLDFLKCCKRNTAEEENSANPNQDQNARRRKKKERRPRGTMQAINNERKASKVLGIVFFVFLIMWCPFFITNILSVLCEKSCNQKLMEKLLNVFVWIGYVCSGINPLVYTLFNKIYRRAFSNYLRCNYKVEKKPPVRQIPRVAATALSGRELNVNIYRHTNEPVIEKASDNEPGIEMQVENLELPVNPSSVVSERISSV
In words: 5HT2c radioligand binding assay ([3H]mesulergine). Conditions: inhibition of control specific binding; at 1µM (concentration printed only in head of Cpd A); transfected CHO cells.

Assay [3] has as its target human dopamine D2S receptor (Homo sapiens, UniProt P14416). As to the kind of experiment: D2 radioligand binding assay ([3H]spiperone). Conditions: read-out: %inhibition D2.
Setting [4] is: inhibition of control specific binding, at 1µM (concentration printed only in head of Cpd A), transfected CHO cells.

Each structure is given as a SMILES string. Like-named read-outs stand apart in the source and are kept apart here.

These results are taken from EP1500391A1, “Therapeutic use of bicycloheptane derivatives” (NEURO3D, priority 2003, dated 2005).

Chain of human 5-HT6 receptor (P50406 whole entry): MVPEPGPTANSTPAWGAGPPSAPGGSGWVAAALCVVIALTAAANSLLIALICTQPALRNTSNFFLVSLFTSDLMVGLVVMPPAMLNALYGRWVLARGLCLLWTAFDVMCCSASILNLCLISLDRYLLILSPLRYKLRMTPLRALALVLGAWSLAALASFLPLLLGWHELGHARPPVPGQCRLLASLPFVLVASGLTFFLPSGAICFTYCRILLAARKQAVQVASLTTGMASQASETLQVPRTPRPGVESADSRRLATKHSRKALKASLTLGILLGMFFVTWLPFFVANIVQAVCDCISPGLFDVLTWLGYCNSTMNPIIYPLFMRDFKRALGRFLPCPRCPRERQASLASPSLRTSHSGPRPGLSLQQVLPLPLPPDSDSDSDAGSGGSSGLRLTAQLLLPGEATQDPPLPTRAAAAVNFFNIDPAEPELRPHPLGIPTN
Chain of human dopamine D2S receptor (P14416 1-414 isoform P14416-2): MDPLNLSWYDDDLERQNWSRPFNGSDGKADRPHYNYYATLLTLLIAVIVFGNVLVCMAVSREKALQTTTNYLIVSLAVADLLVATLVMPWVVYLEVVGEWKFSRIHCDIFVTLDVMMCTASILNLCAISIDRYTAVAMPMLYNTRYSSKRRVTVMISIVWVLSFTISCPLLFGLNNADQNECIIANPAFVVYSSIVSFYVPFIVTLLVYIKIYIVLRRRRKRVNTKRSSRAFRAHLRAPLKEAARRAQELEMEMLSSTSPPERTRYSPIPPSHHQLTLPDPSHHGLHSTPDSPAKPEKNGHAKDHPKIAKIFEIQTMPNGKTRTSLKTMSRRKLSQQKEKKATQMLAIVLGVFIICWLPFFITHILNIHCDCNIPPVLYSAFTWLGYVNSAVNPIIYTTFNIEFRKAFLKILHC
Description for human 5-HT6 receptor: 5HT6 ASSAY : Evaluation of the affinity of compounds for the human 5-HT6 receptor in transfected HEK 293 cells determined in a radioligand binding assay. Cell membrane homogenates (15-20 µg protein) were incubated for 60 min at 37°C with 2 nM [^3H] LSD in the absence or presence of the test compound in a buffer containing 50 mM Tris-HCl (pH 7.4), 10 mM MgCl2 and 0.5 mM EDTA. Nonspecific binding was determined in the presence of 100 µM 5-HT. Following incubation, the samples were filtered rapidly under vacuum through glass fiber filters (GF/B, Packard) presoaked with 0.3% PEI and rinsed several times with ice-cold 50 mM Tris-HCl using a 96-sample cell harvester (Unifilter, Packard). The filters were dried then counted for radioactivity in a scintillation counter (Topcount, Packard) using a scintillation cocktail (Microscint 0, Packard).
The specific ligand binding to the receptor is defined as the difference between the total binding and the non specific binding determined in the presence of an excess of unlabelled ligand. The results are expressed as a percentage of control specific binding and as a percentage inhibition of control specific binding obtained in the presence of the compounds.

Turning to `CN(C)CCO[C@@]1(c2ccccc2)C[C@@H]2CC[C@@]1(C)C2(C)C` [Cpd A, (1S,2R,4S)-(+)-2-[N,N-(dimethylaminoethoxy)]-2-phenyl-1,7,7-trimethyl-bicyclo[2.2.1]heptane], in assay [1], the “%inhibition σ” value is 56%. Further, the inhibition at 1 µM on human 5-HT6 receptor was 44%; on human 5-HT2A receptor it was 93%; in assay [2], 32%; on human 5-HT2C receptor, 79%; in assay [3] it was 29%.
With `CN(C)CCO[C@]1(c2ccccc2)C[C@H]2CC[C@]1(C)C2(C)C` [Cpd B, (1R,2S,4R)-(-)-2-[N,N-(dimethylaminoethoxy)]-2-phenyl-1,7,7-trimethyl-bicyclo[2.2.1]heptane], the “%inhibition σ” value in assay [1] was found to be 72%. Further, the inhibition at 1 µM is 88% at human 5-HT6 receptor; 99% at human 5-HT2A receptor; 89% in assay [2]; 99% on human 5-HT2C receptor; 74% in assay [3].
For `CNCCO[C@@]1(c2ccccc2)C[C@@H]2CC[C@@]1(C)C2(C)C` [Cpd C, (1S,2R,4S)-(+)-2-methylaminoethoxy-2-phenyl-1,7,7-trimethyl-bicyclo[2.2.1]heptane], the inhibition at 1 µM on human 5-HT6 receptor is 36%; at human 5-HT2A receptor, 89%; in assay [2] (setting [4]), 24%; on human 5-HT2C receptor, 65%; in assay [3] (setting [4]), 10%.
Regarding `CNCCO[C@]1(c2ccccc2)C[C@H]2CC[C@]1(C)C2(C)C` [Cpd D, (1R,2S,4R)-(-)-2-methylaminoethoxy-2-phenyl-1,7,7-trimethyl-bicyclo[2.2.1]heptane], the inhibition at 1 µM at human 5-HT6 receptor amounted to 89%; at human 5-HT2A receptor it was 98%; in assay [2] (setting [4]) it was 81%; on human 5-HT2C receptor, 97%; in assay [3] (setting [4]) it was 57%.

For orientation: inhibition means the relative decrease from the control value, in per cent.
